Patent US20100022457A1 (Bristol-Myers Squibb Company, priority 2006, published 2010)
Like-named read-outs stand apart in the source and are kept apart here. Where a SMILES comes first, the peptide text is derived from it. [ ]: non-standard residue; d: D form. Ala(6-(2-MePh)pyridin-3-yl) = Cc1ccccc1-c1ccc(C[C@H](N)C(=O)O)cn1; Bip(2'-Et-4'-OMe) = CCc1cc(OC)ccc1-c1ccc(C[C@H](N)C(=O)O)cc1; αMePhe(2-F) = C[C@](N)(Cc1ccccc1F)C(=O)O; Aib = CC(C)(N)C(=O)O

Legend:
[1] = Solubility of protamine/Compound of SEQ ID NO:9 adduct and in protamine solution; type: physicochemical
Excerpt: Thus, the administration of the protamine/Compound of SEQ ID NO:9 adduct may need a suitable suspending agent; or it maybe injected as dry powder.
Therefore, suspension of the compound of SEQ ID NO:9 in the presence of protamine could still provide extended release effect without using pre-formed protamine/SEQ ID NO:9 adduct.

C57BL/6J-ob/ob mice = experiment: Intraperitoneal glucose tolerance test (ipGTT) in ob/ob mice after subcutaneous injection; type: in vivo, mouse
Procedure: Peptides were dissolved in an appropriate vehicle at a concentration in nmol/ml equivalent to the dose that was to be administered in nmol/kg so that each mouse would receive the same volume/weight of dosing solution. Male C57BL/6J-ob/ob mice (10 weeks old) were randomized into groups of 6 mice per group based on fed plasma glucose and body weight. After an overnight fast, mice were weighed and placed in the experimental lab. After 30 min in the environment, the mice were bled via tail tip at −30 min and immediately injected subcutaneously (sc) with vehicle or the peptide dissolved in vehicle (0.1 ml solution/100 g body weight). At time 0 the mice were bled and then injected intraperitoneally with 50% glucose (2 g/kg) to initiate the intraperitoneal glucose tolerance test (ipGTT). The mice were bled 30, 60, 120 and 180 min after the glucose injection. Blood samples were drawn into potassium EDTA, placed on ice during the study and subsequently centrifuged for 10 min at 3000 rpm at 4° C. Plasma samples were diluted 1-fold for glucose analysis in the Cobas System. Another 5 μl plasma sample was diluted 5-fold with 20 μl of Sample Diluent (Insulin ELISA assay kit, Crystal Chem Inc.) and stored at −20° C. for subsequent analysis using the Ultra Sensitive Mouse Insulin ELISA kit (Crystal Chem Inc.).

[2] = Exposure during ipGTT in ob/ob mice; type: in vivo, mouse; details: sc
[3] = Dog pharmacokinetic study (intravenous and subcutaneous, 67 μg/kg); type: in vivo; details: for half-life: read-out: t1/2 (converted)
Procedure: The pharmacokinetic parameters of the compound of SEQ ID NO:9 were determined in male beagle dogs (n=4, 14±1 kg). Following an overnight fast, each animal received the compound of SEQ ID NO:9 either as an intravenous bolus via femoral vein (67 μg/kg) or by subcutaneous injection given at near the shoulder blades (67 μg/kg). Each animal received both intravenous and subcutaneous doses with a one-week washout between doses following a crossover design. […] Serial blood samples were collected in EDTA-containing microcentrifuge tubes at predose, 0.083, 0.25, 0.5, 0.75, 1, 2, 4, 6, 8, 24, and 30 hours post-dose after intravenous administration; at predose, 0.25, 0.5, 0.75, 1, 2, 4, 6, 8, 24, and 30 hours post-dose after subcutaneous administration. Approximately 0.3 mL of blood was collected at each time point. Blood samples were immediately centrifuged at 4° C. The obtained plasma was frozen with dry ice and stored at −20° C. Plasma drug levels were determined using the LC-MS/MS assay described above.
Plasma samples from in vivo dog study were prepared for analysis by precipitating plasma proteins with two volumes of acetonitrile containing an internal standard. The samples were vortex mixed and removed the precipitated proteins by centrifugation. The resulting supernatants were transferred to a 96-well plate and 10 μL were injected for analysis. Samples were prepared with the Packard Multiprobe II and Quadra 96 Liquid Handling System.
The HPLC system consisted of two Shimadzu LC10AD pumps (Columbia, Md.), a CTC PAL autosampler (Leap Technologies, Switzerland). The column used was a YMC Hydrosphere C18 (2.0×50 mm, 3 μm) (YMC, Inc., Milford, Mass.). The column temperature was maintained at 50° C. and the flow rate was 0.3 mL/minute. The mobile phase A consisted of 10 mM ammonium formate and 0.1% formic acid in water and mobile phase B consisted of 0.1% formic acid in acetonitrile. The initial mobile phase composition was 5% B, and remained at 5% B for one minute to equilibrate the column. The composition was ramped to 95% B over two minutes and held there for one additional minute. The mobile phase was then returned to initial conditions in one minute. Total analysis time was five minutes. A switching valve was used. The eluents between 0-1 minute were diverted to the waste.
The HPLC was interfaced to a Sciex API 4000 mass spectrometer, (Applied Biosystems, Foster City, Calif.) and was equipped with a TurboIonspray ionization source. Ultra high purity nitrogen was used as the nebulizing and turbo gas. The temperature of turbo gas was set at 300° C. and the interface heater was set at 60° C. Data acquisition utilized selected reaction monitoring (SRM). Ions representing the (M+2H)^2+ species for the compound of SEQ ID NO:9, and (M+2H)^2+ for BMS-501143 (IS) were selected in Q1 and were collisionally dissociated with high purity nitrogen at a pressure of 3.5×10^−3 torr to form specific product ions which were subsequently monitored by Q3.
The standard curve concentrations, ranging from 1 to 1000 nM and from 4 to 5000 nM, were used for the in vivo samples obtained from low and high doses, respectively. The curves were fitted with a quadratic regression weighted by reciprocal […]. Standards were analyzed in duplicate. Quality control (QC) samples, prepared in blank matrix at the same concentrations as the standard were also analyzed in each analytical set. For the compound of SEQ ID NO:9, the calculated concentrations of more than 80% of the QCs were within 20% of nominal concentration, indicating acceptable assay performance.
The compound of SEQ ID NO:9 plasma concentration vs. time data were analyzed by noncompartmental methods using the […]™ software program. The Cmax and Tmax values were recorded directly from experimental observations. The AUC0-n and AUCtot values were calculated using a combination of linear and log trapezoidal summations. […]

[4] = male, beagle, plasma, 67 ug/kg, dog, intravenous 67 μg/kg, propylene glycol:phosphate buffer (50:50)
[5] = male, beagle, plasma, sc, 67 ug/kg, dog, subcutaneous 67 μg/kg, propylene glycol:phosphate buffer (50:50)

solubility ([1]; MeOH): > 50 mg/mL | Exposure/dose during ipGTT in ob/ob mice [2]: 18 nM*h/nmol/kg | Exposure in dogs (sc@67 μg/kg) ([3]; Table I, vehicle 0.2 M Tris buffer (pH 8.0)): 452 nM·h | Exposure in dogs (sc@67 μg/kg) ([3]; Table II, vehicle propylene glycol/pH 7.4 phosphate buffer (1:1)): 1230 nM·h | Vss as % of extracellular fluid ([3]; dog, extracellular fluid 0.14 L/kg): 71 % of extracellular fluid | systemic clearance as % of liver blood flow ([3]; dog, liver blood flow 31 mL/min/kg): 3.2 % of liver blood flow | Vss as times of vascular fluid ([3]; dog, vascular fluid 0.05 L/kg): 2 times of vascular fluid | AUC [3, 4]: 1.27 ± 0.299 µM·h | MRT [3, 4]: 3 ± 1 h | clearance ([3]; male, beagle, plasma, 67 ug/kg, dog, intravenous 67 μg/kg, propylene glycol:phosphate buffer (50:50), read-out: CLp): 0.6 ± 0.1 mL/min/kg | Vd ([3]; male, beagle, plasma, 67 ug/kg, dog, intravenous 67 μg/kg, propylene glycol:phosphate buffer (50:50), read-out: VSS): 0.1 ± 0.03 L/kg | half-life [3, 4]: 306 ± 30 min | AUC [3, 5]: 1.22 ± 0.276 µM·h | MRT [3, 5]: 12.5 ± 2.4 h | Tmax [3, 5]: 5 ± 1 h | half-life [3, 5]: 414 ± 78 min | Cmax ([3]; male, beagle, plasma, sc, 67 ug/kg, dog, subcutaneous 67 μg/kg, text of b538, read-out: maximum plasma concentration (Cmax)): 90 ± 29 nM | clearance ([3]; male, beagle, whole blood, 67 ug/kg, dog, intravenous 67 μg/kg, propylene glycol:phosphate buffer (50:50), read-out: CLB (systemic clearance)): 0.9 ± 0.2 mL/min/kg
Compound: CCc1cc(OC)ccc1-c1ccc(C[C@H](NC(=O)[C@H](CC(=O)O)NC(=O)[C@H](CO)NC(=O)[C@@H](NC(=O)[C@](C)(Cc2ccccc2F)NC(=O)[C@@H](NC(=O)CNC(=O)[C@H](CCC(=O)O)NC(=O)C(C)(C)NC(=O)[C@@H](N)Cc2c[nH]cn2)[C@@H](C)O)[C@@H](C)O)C(=O)N[C@@H](Cc2ccc(-c3ccccc3C)nc2)C(N)=O)cc1 [SEQ ID NO: 9] (H-H[Aib]EGT[αMePhe(2-F)]TSD[Bip(2'-Et-4'-OMe)][Ala(6-(2-MePh)pyridin-3-yl)]-NH2)
solubility as a function of protamine in the solution ([1]; pH 6.8, 50 mM PB buffer): decreases with increase of protamine in the solution | Potency in ob/ob mice: % AUC Reduction in Plasma Glucose in an IP Glucose Tolerance Test after SC Injection of Compound (C57BL/6J-ob/ob mice; 10 nmol/kg sc, relative to vehicle-treated group): −68% (p < 0.0001) | maximum increase in postprandial insulin AUC (C57BL/6J-ob/ob mice; 30 nmol/kg sc, ipGTT ob/ob mice): 187.7% | plasma glucose AUC decrease (C57BL/6J-ob/ob mice; 100 nmol/kg sc, ipGTT ob/ob mice): 85.8% | effect on postprandial plasma glucose (C57BL/6J-ob/ob mice; sc in ob/ob mice, between 0 and 180 or 210 minutes): statistically significant decrease | Potency in ob/ob mice ED50 (C57BL/6J-ob/ob mice; sc injection, plasma glucose AUC in ipGTT): 5 nmol/kg
